Data as given in patent publication US11499981B2, “Methods of identifying modulators of SAMTOR-GATOR1 interaction and use of same to modulate mTORC1” (Whitehead Institute for Biomedical Research, priority 2017, dated 2022).

Tests used:
[1] = target: T1, SAMTOR-GATOR1-KICSTOR complex (Homo sapiens, UniProt Q1RMZ1); assay: In vitro GATOR1-SAMTOR dissociation assay (immunopurified complex, immunoblotting); type: biochemical; conditions: for disruption of the interaction between SAMTOR and GATOR1 (FIG. 3D): 100 μM, added to FLAG-Depdc5 immunoprecipitates; for disruption of the interaction of SAMTOR with GATOR1-KICSTOR: added directly to the immunopurified complex kept at 4° C.
T1 construct: FLAG-immunoprecipitates were prepared from the endogenously FLAG-tagged Depdc5 HEK-293T cells; endogenous in cells; host or cells: HEK-293T cells with endogenously FLAG-tagged Depdc5; anti-FLAG immunoprecipitate on beads
T1 sequence (Q1RMZ1 1-405): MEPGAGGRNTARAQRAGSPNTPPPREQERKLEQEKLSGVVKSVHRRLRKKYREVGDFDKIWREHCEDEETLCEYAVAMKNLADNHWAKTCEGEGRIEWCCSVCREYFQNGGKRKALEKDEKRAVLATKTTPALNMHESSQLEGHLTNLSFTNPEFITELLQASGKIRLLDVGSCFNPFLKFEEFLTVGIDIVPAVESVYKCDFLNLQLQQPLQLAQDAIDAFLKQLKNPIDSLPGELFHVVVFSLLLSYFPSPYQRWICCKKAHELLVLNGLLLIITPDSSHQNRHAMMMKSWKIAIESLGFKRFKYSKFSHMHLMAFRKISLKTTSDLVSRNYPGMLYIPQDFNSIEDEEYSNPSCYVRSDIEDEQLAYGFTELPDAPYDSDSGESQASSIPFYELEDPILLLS
Procedure: HEK-293T cells stably expressing endogenous FLAG-tagged Depdc5 were lysed and subjected to anti-FLAG immunoprecipitations as described above. The GATOR1-SAMTOR complexes immobilized on the FLAG beads were washed twice in lysis buffer with 250 mM NaCl, and then incubated for 25 minutes in 0.3 ml of cytosolic buffer (0.1% Triton, 40 mM HEPES pH7.4, 10 mM NaCl, 150 mM KCl, 2.5 mM MgCl2) with the indicated concentrations of SAM or SAH in the cold. The amount of GATOR1, SAMTOR, GATOR2, and KICSTOR that remained bound was assayed by SDS-PAGE and immunoblotting as described previously.

human FLAG-SAMTOR = target: T2, human FLAG-SAMTOR (Homo sapiens, UniProt Q1RMZ1); assay: Equilibrium [3H]SAM binding assay and competition binding assay with purified FLAG-SAMTOR
T2 construct: made in house; host or cells: HEK-293F suspension cells, transient transfection; anti-FLAG IP, FLAG-peptide elution, size-exclusion chromatography
T2 sequence (Q1RMZ1 1-405): T1 sequence (Q1RMZ1 1-405)
Procedure: For radiolabelled SAM binding assays using FLAG-tagged wild-type SAMTOR (FIG. 3B), suspension HEK-293F cells were seeded at 2.5 million cells/ml, and the pRK5-FLAG-SAMTOR cDNA was transfected using polyethylenimine. 72-96 hours after transfection, cells were rinsed one time in cold PBS and lysed in 1% Triton lysis buffer (1% Triton, 40 mM Hepes pH 7.4, 2.5 mM MgCl2 and 1 tablet of EDTA-free protease inhibitor [Roche] per 25 ml buffer). Following anti-FLAG immunoprecipitation, the beads were washed 4 times with lysis buffer containing 500 mM NaCl and the protein was eluted in FLAG Elution Buffer (40 mM Hepes pH 7.4, 150 mM NaCl, 2.5 mM MgCl2 and 0.5 mg/ml FLAG peptide) for 1 hour at 4° C. […] Each sample was mixed well and then 15 μl aliquots were separately quantified using a TriCarb scintillation counter (Perkin Elmer). This process was repeated in pairs for each sample, to ensure similar incubation and wash times for all samples analyzed across different experiments. The affinities for SAM and SAH of human FLAG-SAMTOR were determined by first normalizing the bound [^3H]-labeled SAM concentrations across three separate binding assays performed with varying amounts of cold SAM or SAH. […]

[2] = target: T3, human FLAG-SAMTOR (SAMTOR, C7orf60; wild-type, FLAG-tagged, expressed in HEK-293F cells) (Homo sapiens, UniProt Q1RMZ1); assay: Radiolabelled SAM binding assay: competition of unlabeled SAH with [3H]SAM for purified FLAG-SAMTOR (FIG. 3B); conditions: 5 μM [3H]SAM competed with unlabeled SAH; 5 μg purified wild-type FLAG-SAMTOR on anti-FLAG beads, 1 h on ice, pH 7.4; Ki=IC50/(1+([3H]SAM)/Kd)
T3 construct: made in house; host or cells: HEK-293F (suspension), transient transfection of pRK5-FLAG-SAMTOR; anti-FLAG purification and size-exclusion chromatography
T3 sequence (Q1RMZ1 1-405): T1 sequence (Q1RMZ1 1-405)
Text: FIGS. 3A-3G depict S-adenosylmethionine binds SAMTOR to disrupt its interaction with GATOR1 and KICSTOR. FIG. 3A provides a schematic of the human SAMTOR protein indicating the Class I Rossmann fold methyltransferase domain. Shown is an alignment of partial sequences of this domain from SAMTOR in indicated species. Amino acid positions are colored from white to blue in order of increasing sequence similarity. Orange dots denote the G172 and D190 residues of human SAMTOR. […] FLAG-SAMTOR protein prepared from HEK-293F cells transiently expressing the FLAG-SAMTOR cDNA was further purified by size-exclusion chromatography. The protein was analyzed by SDS-PAGE followed by Coomassie blue staining. Binding assays were performed with purified FLAG-SAMTOR incubated with 5 μM [^3H]SAM and indicated concentrations of unlabeled SAM or SAH. Values for each point are mean±SD of three technical replicates from one representative experiment. The experiment was performed twice. […] FLAG-immunoprecipitates and cell lysates were analyzed by immunoblotting for the levels of the indicated proteins. […] The experiment was performed and analyzed as in (FIG. 3C). […] HA-immunoprecipitates and cell lysates were analyzed as (FIG. 3C). […] FLAG-immunoprecipitates and cell lysates were analyzed by immunoblotting for the phosphorylation states and levels of the indicated proteins. […]

[3] = target: T4, SAMTOR-GATOR1-KICSTOR interaction in HEK-293T cells (Homo sapiens, UniProt Q1RMZ1); assay: Co-immunoprecipitation of GATOR1 with HA-SAMTOR from methionine-starved and restimulated cells; type: cell-based; conditions: HEK-293T starved of methionine 2 hours
T4 construct: expressed in transfected cells; host or cells: HEK-293T cells transiently transfected with HA-SAMTOR in pRK5 (25 ng)
T4 sequence (Q1RMZ1 1-405): T1 sequence (Q1RMZ1 1-405)
Procedure: Cell volumes were determined by Coulter counter and used to calculate whole cell concentrations. […] HA-immunoprecipitates and cell lysates were analyzed by immunoblotting for the levels of the indicated proteins. […] Cell lysates were analyzed by immunoblotting for the phosphorylation states and the levels of the indicated proteins. […] Wild-type or SAMTOR-deficient HEK-293T cells were starved for the indicated amino acid for 2 hours. Cell lysates were analyzed by immunoblotting for the phosphorylation states and the levels of the indicated proteins. […] SAMTOR-deficient or control HEK-293T cells were treated as indicated for 2 hours prior to processing for immunofluorescence detection of mTOR and the lysosomal marker LAMP2. […] FLAG-immunoprecipitates and cell lysates were analyzed by immunoblotting for the phosphorylation states and the levels of the indicated proteins. […] Cell lysates were analyzed by immunoblotting for the phosphorylation states and the levels of the indicated proteins. […] Cell lysates were analyzed by immunoblotting for the phosphorylation states and the levels of the indicated proteins.
For anti-FLAG immunoprecipitations, anti-FLAG M2 Affinity Gel (SIGMA A2220) was washed with lysis buffer three times then resuspended to a ratio of 50:50 affinity gel to lysis buffer. […] Denatured samples were resolved by 8%-12% SDS-PAGE, and analyzed by immunoblotting.

mTORC1 = mTORC1 signaling in methionine-starved cells (immunoblotting of mTORC1 substrate phosphorylation); type: cell-based, human; conditions: for activation of mTORC1 after loss of MAT2A: MAT2A dox-off HEK-293T cells, 30 ng/mL doxycycline for 50 hours
Procedure: Cell volumes were determined by Coulter counter and used to calculate whole cell concentrations. […] HA-immunoprecipitates and cell lysates were analyzed by immunoblotting for the levels of the indicated proteins. […] Cell lysates were analyzed by immunoblotting for the phosphorylation states and the levels of the indicated proteins. […] Wild-type or SAMTOR-deficient HEK-293T cells were starved for the indicated amino acid for 2 hours. Cell lysates were analyzed by immunoblotting for the phosphorylation states and the levels of the indicated proteins. […] SAMTOR-deficient or control HEK-293T cells were treated as indicated for 2 hours prior to processing for immunofluorescence detection of mTOR and the lysosomal marker LAMP2. In all images, insets represent selected fields magnified 3.07× as well as their overlays. Scale bar represents 10 μm. […] SAMTOR-null cells were co-transfected with a cDNA for FLAG-S6K1 along with the indicated HA-tagged cDNAs and cells were treated as in (FIG. 4C) prior to preparing lysates and FLAG-immunoprecipitates. FLAG-immunoprecipitates and cell lysates were analyzed by immunoblotting for the phosphorylation states and the levels of the indicated proteins. […] S2R+ cells were transfected with dsRNAs targeting the indicated mRNAs and starved for 1 hour for the indicated amino acid. Cell lysates were analyzed by immunoblotting for the phosphorylation states and the levels of the indicated proteins. […] MAT2A dox-off HEK-293T cells were treated with 30 ng/mL doxycycline for 50 hours prior to starving them as in (FIG. 4C). Cell lysates were analyzed by immunoblotting for the phosphorylation states and the levels of the indicated proteins.
Cells were rinsed with cold PBS and lysed in lysis buffer (1% Triton, 10 mM β-glycerol phosphate, 10 mM pyrophosphate, 40 mM Hepes pH 7.4, 2.5 mM MgCl2 and 1 tablet of EDTA-free protease inhibitor [Roche] (per 25 ml buffer)). […] Cell lysate samples were prepared by addition of 5× sample buffer (0.242 M Tris, 10% SDS, 25% glycerol, 0.5 M DTT, and bromophenol blue), resolved by 8%-16% SDS-PAGE, and analyzed by immunoblotting.

binding to SAMTOR in competition binding assay (human FLAG-SAMTOR; 5 μM [3H]SAM with unlabeled competitor) | Ki [2] [µM] | Compound | disruption of the interaction between SAMTOR and GATOR1 (FIG. 3D) [1] | disruption of the interaction of SAMTOR with GATOR1-KICSTOR [1] | SAMTOR-GATOR1-KICSTOR interaction in cells after re-addition ([3]; restimulated 20 minutes with 1 mM SAM) | activation of mTORC1 after loss of MAT2A (mTORC1) | mTORC1 signaling after addition to methionine-starved cells (mTORC1; methionine-starved HEK-293T cells (FIG. 4H)) | Kd (human FLAG-SAMTOR; 5 μM [3H]SAM with unlabeled SAM, read-out: dissociation constant of SAM for SAMTOR) [µM] | SAMTOR-GATOR1-KICSTOR interaction in cells after re-addition ([3]; restimulated 20 minutes with 100 μM methionine)
can also bind | ~4.6 | Nc1ncnc2c1ncn2[C@@H]1O[C@H](CSCC[C@H](N)C(=O)O)[C@@H](O)[C@H]1O [SAH, S-adenosylhomocysteine] | disrupt the interaction | disrupted the interaction |  |  |  |  | 
 |  | C[S+](CC[C@H](N)C(=O)[O-])C[C@H]1O[C@@H](n2cnc3c(N)ncnc32)[C@H](O)[C@@H]1O (stereo partly drawn) [SAM, S-adenosylmethionine] | disrupt the interaction | disrupted the interaction | reduced the interaction to baseline levels | largely intact | reactivated mTORC1 signaling | ~7 | 
 |  | CSCC[C@H](N)C(=O)O [methionine] |  |  |  | greatly attenuated |  |  | reduced the interaction to baseline levels
